Source: US12595246B2, “Crystalline and amorphous forms of N-(5-((4-ethylpiperazin-1-yl)methyl)pyridine-2-yl)-5-fluoro-4-(3-isopropyl-2-methyl-2H-indazol-5-yl)pyrimidin-2-amine and its salts, and preparation methods and therapeutic uses thereof” (BETA PHARMA, INC., priority 2019, dated 2026)

Test: Dynamic vapor sorption (DVS) isotherm analysis, with XRPD before and after DVS
Assay type: physicochemical
Settings: for change of crystalline form after DVS (XRPD): XRPD before and after DVS; for hygroscopicity rating by DVS isotherm analysis: rating in words, based on uptake at 80% RH

SMILES	change of crystalline form after DVS (XRPD)	hygroscopicity by DVS isotherm analysis (uptake at 80% RH) [%]	hygroscopicity rating by DVS isotherm analysis
CCN1CCN(Cc2ccc(Nc3ncc(F)c(-c4cc(F)c5nc(C)n(C(C)C)c5c4)n3)nc2)CC1.Cc1ccc(S(=O)(=O)O)cc1	no change of crystalline form	1.67	slightly hygroscopic
CCN1CCN(Cc2ccc(Nc3ncc(F)c(-c4cc(F)c5nc(C)n(C(C)C)c5c4)n3)nc2)CC1.Cl [1⋅HCl (1:1; Form A)]	no change of crystalline form	3.64	hygroscopic
CCN1CCN(Cc2ccc(Nc3ncc(F)c(-c4cc(F)c5nc(C)n(C(C)C)c5c4)n3)nc2)CC1.O=S(=O)(O)O [Compound 1⋅H2SO4 (1:1; Form A)]	some change of crystalline form	26.42	very hygroscopic
CCN1CCN(Cc2ccc(Nc3ncc(F)c(-c4cc(F)c5nc(C)n(C(C)C)c5c4)n3)nc2)CC1.O=P(O)(O)O [Compound 1⋅H3PO4 (1:1)]	some change of crystalline form	3.16	hygroscopic
CCN1CCN(Cc2ccc(Nc3ncc(F)c(-c4ccc5nn(C)c(C(C)C)c5c4)n3)nc2)CC1 [freebase of 1 (Form D)]	no change of crystalline form	5.13	hygroscopic
